According to ChEMBL document CHEMBL1201862, “PubChem BioAssay data set” (2004):
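Protocol summary: plate cells (96-well), add compound at 5 concentrations, incubate 48 h, interpolate endpoints linearly. GI50 = concentration required for 50% inhibition of growth.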 Activity calls are given as the source filed them. Rule as the data show it: active = GI50 up to about 1.1 µM and inactive = higher.

How the values were obtained:
Test in all cases: DTP human tumour cell line panel, 48 h
SK-MEL-28 = system: SK-MEL-28
HT-29 = system: HT-29
OVCAR-3 = system: OVCAR-3
OVCAR-8 = system: OVCAR-8
RPMI-8226 = system: RPMI-8226
RXF 393 = system: RXF 393
UO-31 = system: UO-31
HOP-92 = system: HOP-92
HL-60 = system: HL-60
A549 = system: A549
IGROV-1 = system: IGROV-1
ACHN = system: ACHN
CCRF-CEM = system: CCRF-CEM
SK-MEL-5 = system: SK-MEL-5
SF-268 = system: SF-268
SR = system: SR
K562 = system: K562

Measured: GI50

O=C1C=CC2(CCCCCCC2=O)CC1 (configuration not stated)
inactive: SK-MEL-28 > 100 µM | HT-29 > 100 µM | OVCAR-3 > 100 µM | OVCAR-8 > 100 µM | RPMI-8226 > 100 µM | RXF 393 > 100 µM | UO-31 > 100 µM | HOP-92 > 100 µM | HL-60 > 100 µM | A549 > 100 µM | IGROV-1 > 100 µM | ACHN > 100 µM | CCRF-CEM > 100 µM | SK-MEL-5 > 100 µM | SF-268 > 100 µM | SR > 100 µM

CCCCCCCCC(=O)NCCCNCCCNC(=O)CCCCCCCC
inactive: SK-MEL-28 12.3 µM | HT-29 2.92 µM | OVCAR-3 15.5 µM | OVCAR-8 14.9 µM | RPMI-8226 3.23 µM | RXF 393 8.89 µM | UO-31 13.2 µM | HOP-92 3.85 µM | HL-60 2.11 µM | A549 14.3 µM | IGROV-1 4.35 µM | ACHN 5.75 µM | CCRF-CEM 3.28 µM | SK-MEL-5 3.82 µM | SF-268 10.2 µM | K562 2.18 µM | SR 2.62 µM

CCOC(=O)C(CCC(N)=O)(CCC(=O)OC)C(=O)OCC
inactive: SK-MEL-28 > 100 µM | HT-29 > 100 µM | OVCAR-3 > 100 µM | OVCAR-8 > 100 µM | RPMI-8226 > 100 µM | RXF 393 > 100 µM | UO-31 > 100 µM | HOP-92 > 100 µM | HL-60 > 100 µM | A549 > 100 µM | IGROV-1 > 100 µM | ACHN > 100 µM | SF-268 > 100 µM | K562 > 100 µM | SR > 100 µM

COc1ccc(C(Cl)=C(c2ccc(OCCN(C)C)cc2)c2ccc(OCCN(C)C)cc2)cc1
inactive: SK-MEL-28 1.63 µM | HT-29 1.49 µM | OVCAR-3 2.09 µM | OVCAR-8 1.87 µM | RPMI-8226 1.62 µM | RXF 393 1.13 µM | UO-31 1.58 µM | HOP-92 2.16 µM | HL-60 1.83 µM | A549 1.83 µM | IGROV-1 3.03 µM | ACHN 1.82 µM | CCRF-CEM 1.16 µM | SK-MEL-5 1.73 µM | SF-268 1.84 µM | K562 1.37 µM | SR 1.36 µM

Cc1nc2nnnn2c2c1C(=O)Nc1ccccc1N2
inactive: SK-MEL-28 > 100 µM | HT-29 > 100 µM | OVCAR-3 > 100 µM | OVCAR-8 > 100 µM | RPMI-8226 > 100 µM | RXF 393 > 100 µM | UO-31 > 100 µM | HOP-92 > 100 µM | HL-60 > 100 µM | A549 62.1 µM | IGROV-1 > 100 µM | ACHN 73.3 µM | CCRF-CEM > 100 µM | SF-268 > 100 µM | K562 > 100 µM | SR 18.7 µM

COc1cccc(C(=O)N2CCc3ccccc32)c1OC
inactive: SK-MEL-28 > 100 µM | HT-29 38.9 µM | OVCAR-3 38.5 µM | OVCAR-8 78.3 µM | RPMI-8226 35.3 µM | RXF 393 63.1 µM | UO-31 > 100 µM | HOP-92 53.5 µM | HL-60 27.8 µM | A549 > 100 µM | IGROV-1 > 100 µM | ACHN 64.9 µM | CCRF-CEM 42.2 µM | SK-MEL-5 69.8 µM | K562 34.7 µM | SR 29.4 µM

Cc1ccc(C)c(NC(=O)CC/C(=N\NC(=O)c2c(O)ccc3ccccc23)C(C)C(=O)c2ccc(O)cc2)c1 (configuration not stated)
inactive: SK-MEL-28 49 µM | HT-29 46.9 µM | OVCAR-3 23.3 µM | OVCAR-8 26.1 µM | RPMI-8226 94.4 µM | RXF 393 51.9 µM | UO-31 17.9 µM | HOP-92 46.3 µM | HL-60 5.26 µM | A549 65 µM | IGROV-1 52 µM | ACHN 25.2 µM | CCRF-CEM 15.2 µM | SK-MEL-5 41.3 µM | SF-268 17.9 µM | K562 32.8 µM | SR 27.8 µM

CCOC(=O)NC(=O)c1cn(CCN2CCN(C(=O)CNC(=O)CNC(=O)Cn3cc(C(=O)NC(=O)OCC)c(=O)[nH]c3=O)CC2)c(=O)[nH]c1=O
inactive: SK-MEL-28 > 100 µM | HT-29 > 100 µM | OVCAR-3 > 100 µM | OVCAR-8 > 100 µM | UO-31 > 100 µM | HOP-92 > 100 µM | HL-60 > 100 µM | A549 > 100 µM | ACHN > 100 µM | CCRF-CEM > 100 µM | SF-268 > 100 µM | K562 > 100 µM | SR > 100 µM

Cn1c(=O)c2c(nc3n2CCC(=O)N3)n(C)c1=O
inactive: SK-MEL-28 > 100 µM | HT-29 > 100 µM | OVCAR-8 > 100 µM | RXF 393 > 100 µM | UO-31 > 100 µM | HOP-92 > 100 µM | HL-60 > 100 µM | A549 > 100 µM | IGROV-1 > 100 µM | ACHN > 100 µM | CCRF-CEM > 100 µM | SK-MEL-5 > 100 µM | SF-268 > 100 µM | K562 > 100 µM | SR > 100 µM
